Results taken from patent publication US4452778A, “Synergistic antibacterial compositions and method of treatment of infections caused by multiple antibiotic-resistant organisms” (Eli Lilly and Company, priority 1981, dated 1984).
Where two headings read alike, the source gives them in different places.

Legend:
Test in all cases: Checkerboard broth dilution synergy study (mic)
Format in all cases: cell-based
[1] = test system: Pseudomonas aeruginosa; settings: for MIC: Pseudomonas aeruginosa, read-out: mic, drug alone
[2] = test system: Proteus vulgaris; settings: Table II; for MIC: Proteus vulgaris, read-out: mic, drug alone
[3] = test system: Proteus rettgeri; settings: for MIC: Providencia rettgeri, read-out: mic, drug alone
[4] = test system: Klebsiella pneumoniae; settings: for MIC: Klebsiella pneumoniae, read-out: mic, drug alone
[5] = test system: E. coli; settings: Escherichia coli, Table II, read-out: mic, drug alone

COC1(NC(=O)C(C(=O)O)c2ccc(O)cc2)C(=O)N2C(C(=O)O)=C(CSc3nnnn3C)COC21 (stereo not drawn) [1-oxa compound I, moxalactam]
> 64 µg/mL: MIC ([1]; Table II, strain Davis) | MIC ([1]; Table III, isolate 610)
< 0.012 µg/mL: mic of each drug in combination I + T ([4]; Table II, strain 130) | mic of each drug in combination I + T ([4]; Table II, strain 933)
2 µg/mL: mic of each drug in combination I + T ([1]; Table II, strain 84) | mic of each drug in combination I + P ([1]; Table II, strain 424) | mic of each drug in combination I + T ([1]; Table II, strain 424) | mic of each drug in combination I + T ([1]; Table II, strain Davis) | MIC ([3]; Table III, isolate 1422) | mic of each drug in combination I + A ([3]; Table III, isolate 1422) | MIC ([4]; Table II, strain 214-1) | MIC ([4]; Table II, strain 463) | MIC ([4]; Table II, strain 1204-2) | MIC ([4]; Table III, isolate 214-1) | MIC ([4]; Table III, isolate 463) | mic of each drug in combination I + P ([4]; Table II, strain 463) | mic of each drug in combination I + A ([4]; Table III, isolate 463)
32 µg/mL: MIC ([1]; Table II, strain 447) | MIC ([1]; Table III, isolate 362) | MIC ([1]; Table III, isolate 363) | MIC ([1]; Table III, isolate Brownlee)
0.03 µg/mL: MIC ([5]; strain 46-2) | MIC ([5]; strain 77-3) | MIC ([5]; strain 1260) | MIC ([5]; strain 1262)
0.25 µg/mL: MIC ([3]; Table II, strain 65) | MIC ([3]; Table III, isolate 53) | MIC ([3]; Table III, isolate 136-1) | MIC ([4]; Table II, strain 933) | MIC ([4]; Table III, isolate 938)
4 µg/mL: mic of each drug in combination I + P ([1]; Table II, strain 84) | mic of each drug in combination I + P ([1]; Table II, strain 447) | mic of each drug in combination I + T ([1]; Table II, strain 1484) | mic of each drug in combination I + A ([1]; Table III, isolate 316-2) | mic of each drug in combination I + A ([1]; Table III, isolate 362)
< 0.12 µg/mL: mic of each drug in combination I + T ([2]; strain 363) | mic of each drug in combination I + T ([2]; strain Shide)
8 µg/mL: MIC ([1]; Table II, strain 424) | MIC ([1]; Table III, isolate 316-2) | mic of each drug in combination I + P ([1]; Table II, strain 366) | mic of each drug in combination I + P ([1]; Table II, strain Davis)
16 µg/mL: MIC ([1]; Table II, strain 84) | MIC ([1]; Table II, strain 366) | mic of each drug in combination I + P ([1]; Table II, strain 1484)
< 0.06 µg/mL: mic of each drug in combination I + A ([3]; Table III, isolate 53) | mic of each drug in combination I + A ([3]; Table III, isolate 768) | mic of each drug in combination I + A ([3]; Table III, isolate 997) | mic of each drug in combination I + A ([4]; Table III, isolate 214-1) | mic of each drug in combination I + A ([4]; Table III, isolate 938)
0.6 µg/mL: mic of each drug in combination I + A ([1]; Table III, isolate 610)
0.4 µg/mL: MIC ([3]; Table III, isolate 997)
0.06 µg/mL: MIC ([2]; strain Shide) | mic of each drug in combination I + A ([4]; Table III, isolate 1231) | MIC ([5]; strain 136-3)
64 µg/mL: MIC ([1]; Table II, strain 1484)
0.12 µg/mL: MIC ([2]; strain 363) | mic of each drug in combination I + T ([3]; Table II, strain 65) | mic of each drug in combination I + A ([3]; Table III, isolate 136-1)
0.012 µg/mL: mic of each drug in combination I + T ([4]; Table II, strain 214-1) | mic of each drug in combination I + T ([4]; Table II, strain 463) | mic of each drug in combination I + T ([4]; Table II, strain 512) | mic of each drug in combination I + T ([4]; Table II, strain 1204-2)
1 µg/mL: mic of each drug in combination I + A ([1]; Table III, isolate 363) | mic of each drug in combination I + A ([1]; Table III, isolate Brownlee)
0.5 µg/mL: mic of each drug in combination I + T ([1]; Table II, strain 366) | MIC ([3]; Table III, isolate 768) | MIC ([4]; Table II, strain 130) | MIC ([4]; Table II, strain 512) | MIC ([4]; Table III, isolate 130) | MIC ([4]; Table III, isolate 1231) | mic of each drug in combination I + P ([4]; Table II, strain 214-1) | mic of each drug in combination I + P ([4]; Table II, strain 512) | mic of each drug in combination I + P ([4]; Table II, strain 1204-2) | mic of each drug in combination I + A ([4]; Table III, isolate 130)
< 0.5 µg/mL: mic of each drug in combination I + T ([1]; Table II, strain 447)
